Assay results published in ChEMBL document CHEMBL1201862, “PubChem BioAssay data set” (2004).
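Following 48 hours of exposure in 96-well plates, responses at five concentrations were used to interpolate endpoints linearly. Abbreviation: GI50, concentration required for 50% inhibition of growth.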 Activity calls are given as the source filed them. Cut-off read from the data, not from the text of the source: active = GI50 up to about 1.1 µM and inactive = higher.

Assays:
Test in all cases: inhibition of tumour cell growth, NCI panel, 48 h
MOLT-4 = tested on: MOLT-4
MDA-MB-435 = tested on: MDA-MB-435
HT-29 = tested on: HT-29
BT-549 = tested on: BT-549
HCT-116 = tested on: HCT-116
HCT-15 = tested on: HCT-15
NCI-H23 = tested on: NCI-H23
UO-31 = tested on: UO-31
A549 = tested on: A549
MCF7 = tested on: MCF7
786-0 = tested on: 786-0
SNB-75 = tested on: SNB-75
EKVX = tested on: EKVX
OVCAR-5 = tested on: OVCAR-5
UACC-257 = tested on: UACC-257
NCI-H460 = tested on: NCI-H460
NCI-H226 = tested on: NCI-H226
SK-OV-3 = tested on: SK-OV-3
COLO 205 = tested on: COLO 205
NCI-H522 = tested on: NCI-H522

Measured: GI50

O=c1c(Cc2c(O)ccc3ccccc23)nnc2sc(-c3nn4c(=O)c(Cc5c(O)ccc6ccccc56)nnc4s3)nn12
inactive: MOLT-4 > 10 µM | MDA-MB-435 > 100 µM | HT-29 > 100 µM | BT-549 25.4 µM | HCT-116 > 100 µM | NCI-H23 54.7 µM | UO-31 > 100 µM | A549 > 100 µM | MCF7 18 µM | 786-0 14.8 µM | SNB-75 9.2 µM | EKVX 29.2 µM | OVCAR-5 > 100 µM | UACC-257 > 100 µM
> 100 µM: HCT-15

c1ncc(C23C4C5C6C4C2C6C53)[nH]1 (configuration not stated)
inactive: MOLT-4 > 100 µM | MDA-MB-435 > 100 µM | HT-29 > 100 µM | BT-549 > 100 µM | HCT-116 > 100 µM | NCI-H460 > 100 µM | NCI-H226 > 100 µM | NCI-H23 > 100 µM | UO-31 > 100 µM | A549 > 100 µM | MCF7 > 100 µM | SK-OV-3 > 100 µM | 786-0 > 100 µM | SNB-75 > 100 µM | EKVX > 100 µM | OVCAR-5 > 100 µM | UACC-257 > 100 µM | COLO 205 > 100 µM
> 100 µM: HCT-15

Oc1ccc(-c2nc(-c3cccnc3)c(-c3ccc(F)cc3)[nH]2)cc1
inactive: MOLT-4 10 µM | MDA-MB-435 16.2 µM | HT-29 18.1 µM | BT-549 16.6 µM | HCT-116 17.4 µM | NCI-H460 23.3 µM | NCI-H226 21.5 µM | NCI-H23 12.7 µM | UO-31 > 10 µM | A549 21.8 µM | MCF7 16 µM | SK-OV-3 23.4 µM | 786-0 22.9 µM | SNB-75 18.2 µM | EKVX 19.3 µM | OVCAR-5 30.2 µM | UACC-257 17.6 µM | COLO 205 19.5 µM
22.7 µM: HCT-15

CCOC(=O)C1(C(=O)OCC)CC(=O)[C@@]2(C1)OCC[C@H]1OC(=O)C[C@H]12
> 100 µM: HCT-15
inactive: MOLT-4 > 100 µM | MDA-MB-435 > 100 µM | HT-29 > 100 µM | BT-549 > 100 µM | HCT-116 > 100 µM | NCI-H460 > 100 µM | NCI-H23 > 100 µM | UO-31 > 100 µM | A549 > 100 µM | MCF7 > 100 µM | 786-0 > 100 µM | SNB-75 > 100 µM | NCI-H522 > 100 µM | EKVX > 100 µM | OVCAR-5 > 100 µM | UACC-257 > 100 µM | COLO 205 > 100 µM

CN(Cc1c2ccccc2cc2ccccc12)S(=O)(=O)c1ccc(-c2c3nc(c(-c4ccc(S(=O)(=O)N(C)Cc5c6ccccc6cc6ccccc56)cc4)c4ccc([nH]4)c(-c4ccc(S(=O)(=O)N(C)Cc5c6ccccc6cc6ccccc56)cc4)c4nc(c(-c5ccc(S(=O)(=O)N(C)Cc6c7ccccc7cc7ccccc67)cc5)c5ccc2[nH]5)C=C4)C=C3)cc1
inactive: MOLT-4 > 100 µM | MDA-MB-435 > 100 µM | HT-29 > 100 µM | BT-549 > 100 µM | HCT-116 > 100 µM | NCI-H460 > 100 µM | NCI-H23 > 100 µM | UO-31 > 100 µM | A549 > 100 µM | MCF7 > 100 µM | SK-OV-3 > 100 µM | 786-0 53.1 µM | SNB-75 24.4 µM | NCI-H522 > 100 µM | EKVX > 100 µM | OVCAR-5 > 100 µM | UACC-257 > 100 µM | COLO 205 > 100 µM
> 100 µM: HCT-15

CS(=O)(=O)c1nc(-c2cc3c(c(S(C)(=O)=O)n2)CCC3)cc2c1CCC2
inactive: MOLT-4 > 100 µM | MDA-MB-435 > 100 µM | HT-29 > 100 µM | BT-549 > 100 µM | HCT-116 > 100 µM | NCI-H460 > 100 µM | NCI-H226 > 100 µM | NCI-H23 > 100 µM | UO-31 > 100 µM | A549 > 100 µM | SK-OV-3 > 100 µM | 786-0 82.6 µM | SNB-75 22.4 µM | NCI-H522 > 100 µM | EKVX > 100 µM | OVCAR-5 > 100 µM | UACC-257 > 100 µM | COLO 205 > 100 µM
> 100 µM: HCT-15

OC[C@@H](O)[C@H](O)[C@@H](O)/C=N/Nc1ccc(Cl)nn1
> 100 µM: HCT-15
inactive: MOLT-4 > 100 µM | MDA-MB-435 > 100 µM | HT-29 > 100 µM | BT-549 > 100 µM | HCT-116 > 100 µM | NCI-H460 > 100 µM | NCI-H23 > 100 µM | A549 > 100 µM | MCF7 > 100 µM | SK-OV-3 > 100 µM | 786-0 > 100 µM | NCI-H522 > 100 µM | EKVX > 100 µM | OVCAR-5 > 100 µM | UACC-257 > 100 µM | COLO 205 > 100 µM

CCOC(=O)c1ccc(NCC#CCN2CCCCC2)cc1
89.9 µM: HCT-15
inactive: MOLT-4 > 100 µM | MDA-MB-435 > 100 µM | HT-29 > 100 µM | BT-549 > 100 µM | HCT-116 96.8 µM | NCI-H226 > 100 µM | NCI-H23 > 100 µM | UO-31 > 100 µM | A549 > 100 µM | MCF7 73.8 µM | SK-OV-3 > 100 µM | 786-0 > 100 µM | EKVX > 100 µM | OVCAR-5 83.6 µM | COLO 205 41.9 µM

O=C1/C(=C/c2ccccc2S)N=C(c2ccccc2)N1c1ccc2c(c1)Sc1cc(N3C(=O)/C(=C/c4ccccc4S)N=C3c3ccccc3)ccc1N2
31.6 µM: HCT-15
inactive: MOLT-4 19.6 µM | MDA-MB-435 21.1 µM | HT-29 34.4 µM | BT-549 26.7 µM | HCT-116 21.3 µM | NCI-H460 23.7 µM | UO-31 15.8 µM | A549 17.4 µM | MCF7 21 µM | SK-OV-3 17.8 µM | 786-0 22.9 µM | SNB-75 15.8 µM | EKVX 20.7 µM | OVCAR-5 18.7 µM | UACC-257 20.4 µM | COLO 205 31.4 µM

CC(C(=O)n1ccnc1)N1c2ccccc2Sc2ccccc21 (configuration not stated)
inactive: MOLT-4 43 µM | MDA-MB-435 > 100 µM | HT-29 90.4 µM | BT-549 > 100 µM | HCT-116 > 100 µM | NCI-H460 92 µM | NCI-H226 61.9 µM | NCI-H23 78.7 µM | UO-31 70.1 µM | A549 > 100 µM | MCF7 53.1 µM | SK-OV-3 97.7 µM | 786-0 59.2 µM | SNB-75 40.6 µM | EKVX 88.3 µM | OVCAR-5 65.3 µM | UACC-257 79.4 µM | COLO 205 79.3 µM
97.5 µM: HCT-15

COc1cc2c(cc1OC)C(=O)C1(C2)[C@H](c2ccccc2)C2C(=O)c3cc(OC)c(OC)cc3C2[C@H]1c1ccccc1 (some centres not stated)
> 100 µM: HCT-15
inactive: MOLT-4 > 100 µM | MDA-MB-435 > 100 µM | HT-29 > 100 µM | BT-549 > 100 µM | HCT-116 > 100 µM | NCI-H460 49.1 µM | NCI-H226 > 100 µM | NCI-H23 > 100 µM | UO-31 > 100 µM | A549 31 µM | SK-OV-3 > 100 µM | 786-0 > 100 µM | SNB-75 24.8 µM | NCI-H522 > 100 µM | EKVX > 100 µM | OVCAR-5 > 100 µM | UACC-257 > 100 µM | COLO 205 > 100 µM

CCC(CN(C)C)C(=O)c1ccco1 (configuration not stated)
inactive: MOLT-4 22.3 µM | MDA-MB-435 > 100 µM | HT-29 > 100 µM | BT-549 > 100 µM | HCT-116 > 100 µM | NCI-H460 > 100 µM | NCI-H23 > 100 µM | UO-31 > 100 µM | A549 > 100 µM | MCF7 47.9 µM | SK-OV-3 > 100 µM | 786-0 > 100 µM | SNB-75 > 100 µM | NCI-H522 14.5 µM | EKVX > 100 µM | OVCAR-5 > 100 µM | UACC-257 > 100 µM
> 100 µM: HCT-15

CCC(C)[C@H](NC(=O)N[C@H](C)c1ccccc1)C(=O)OC (some centres not stated)
> 100 µM: HCT-15
inactive: MOLT-4 > 100 µM | MDA-MB-435 > 100 µM | HT-29 > 100 µM | BT-549 > 100 µM | HCT-116 > 100 µM | NCI-H460 > 100 µM | NCI-H226 > 100 µM | NCI-H23 > 100 µM | UO-31 > 100 µM | A549 > 100 µM | MCF7 > 100 µM | SK-OV-3 > 100 µM | 786-0 > 100 µM | SNB-75 > 100 µM | EKVX > 100 µM | OVCAR-5 > 100 µM | UACC-257 > 100 µM | COLO 205 > 100 µM

CC(C)=CCC/C(C)=C/CC/C(C)=C/CSc1ccc(Cl)cc1C(=O)O
inactive: MOLT-4 23.1 µM | MDA-MB-435 20.2 µM | HT-29 21.1 µM | BT-549 20.2 µM | HCT-116 17.8 µM | NCI-H460 18.7 µM | NCI-H226 17.4 µM | NCI-H23 17.7 µM | UO-31 17.5 µM | A549 16.5 µM | MCF7 17.3 µM | SK-OV-3 17.3 µM | 786-0 17.1 µM | SNB-75 18.7 µM | EKVX 18.6 µM | OVCAR-5 18.9 µM | UACC-257 27.8 µM | COLO 205 22.4 µM
20.4 µM: HCT-15

O=C(O)c1ccccc1C(=O)Nc1cc2c(cc1Br)-c1ccccc1C2=O
inactive: MOLT-4 79.8 µM | MDA-MB-435 > 100 µM | HT-29 > 100 µM | BT-549 > 100 µM | HCT-116 > 100 µM | NCI-H460 > 100 µM | NCI-H23 > 100 µM | UO-31 > 100 µM | A549 > 100 µM | MCF7 > 100 µM | SK-OV-3 > 100 µM | 786-0 > 100 µM | SNB-75 47.5 µM | NCI-H522 59.7 µM | EKVX > 100 µM | OVCAR-5 > 100 µM | UACC-257 > 100 µM | COLO 205 68.5 µM
> 100 µM: HCT-15
